In patent US20240174690A1, “ANNULATED 2-AMINO-3-CYANO THIOPHENES AND DERIVATIVES FOR THE TREATMENT OF CANCER” (BOEHRINGER INGELHEIM INTERNATIONAL GMBH, priority 2021, published 2024) one finds IC50 data, which are given here for 26 molecules.

The IC50 is the concentration needed to halve the response being measured. Read a high IC50 as weaker potency in that assay.

One assay has as its system LOVO cells. The experiment in a line: LOVO CTG proliferation assay (120 h) (CRC, G13D). The class given is cell-based. The conditions noted are these: Homo sapiens, CTG 120 h. The procedure: LOVO CTG Proliferation Assay (120 h) (CRC, G13D)
LOVO cells (ATCC CCL-229) are dispensed into 384-well plates, flat and clear bottom (Greiner, PNr. 781091) at a density of 1000 cells per well in 60 μL DMEM (Sigma D6429)+10% Fetal Calf Serum (HyClone, PNr.: SH30084.03) and incubated at 37° C. in a CO2 incubator overnight. The next day, compounds (10 mM stock in DMSO) are added with the ECHO acoustic liquid handler system (Beckman Coulter), including DMSO controls. Plates are incubated for 120 h, and cell viability is measured using CellTiter-Glo luminescent cell viability reagent (Promega product code G7570). Viability (stated as percent of control) is defined as relative luminescence units RLU of each well divided by the RLU of cells in DMSO controls. IC50 values are determined from viability measurements by non-linear regression using a four-parameter model.

A further assay concerns the target KRAS (G12C)::SOS1 (Homo sapiens (Human), UniProt P01116, C118S/C51S/C80L/G12C). The assay is described as follows: KRAS::SOS1 AlphaScreen binding assay, KRAS G12C. From the text:
(§1) This assay can be used to examine the potency with which compounds according to the invention binding to (mutated) KRAS inhibit the protein-protein interaction between SOS1 and (mutated) KRAS e.g., KRAS WT, KRAS G12C, KRAS G12D, KRAS G12V, KRAS G13D. […] Low IC50 values in this assay setting are indicative of strong inhibition of protein-protein interaction between SOS1 and KRAS:
(§2) These assays measure the inhibitory effect of compounds on KRAS mutant protein-protein interactions using the Alpha Screen technology by Perkin Elmer.
(§3) The following (mutant) enzyme forms of KRAS and interacting proteins are used in these assays at the given concentrations: • KRAS (G12D) 1-169, N-terminal 6His-tag, C-terminal avi-tag (Xtal BioStructures, Inc.); final assay concentration 10 nM and SOS1 564-1049, N-terminal 229 GST-tag, TEV cleavage site (Viva Biotech Ltd); final assay concentration 5 nM; • KRAS (G12C) 1-169, N-terminal 6His-tag for purification, cleaved off, C-terminal avi-tag, biotinylated, mutations: C51S, C80L, C118S (in house); final assay concentration 7.5 nM and SOS1 564-1049, N-terminal 229 GST-tag, TEV cleavage site (Viva Biotech Ltd); final assay concentration 5 nM; • KRAS (G12V) 1-169, N-terminal 6His-tag for purification, cleaved off, C-terminal avi-tag, biotinylated, TEV cleavage site, mutation: C118S, GDP loaded (in house); final assay concentration 10 nM and SOS1 564-1049, N-terminal 229 GST-tag, TEV cleavage site (Viva Biotech Ltd); final assay concentration 10 nM; • KRAS (G13D) 1-169, N-terminal 6His-tag for purification, cleaved off, C-terminal avi-tag, biotinylated, TEV cleavage site, mutation: C118S, GDP loaded (in house); final assay concentration 10 nM and SOS1 564-1049, N-terminal 229 GST-tag, TEV cleavage site (Viva Biotech Ltd); final assay concentration 10 nM; • KRAS (WT) 1-169, N-terminal 6His-tag for purification, cleaved off, C-terminal avi-tag, biotinylated, TEV cleavage site, mutation: C118S, GDP loaded (in house); final assay concentration 10 nM and SOS1 564-1049, N-terminal 229 GST-tag, TEV cleavage site (Viva Biotech Ltd); final assay concentration 10 nM.
(§4) Test compounds dissolved in DMSO are dispensed onto assay plates (Proxiplate 384 PLUS, white, PerkinElmer; 6008289) using an Access Labcyte Workstation with the Labcyte Echo 55×. For the chosen highest assay concentration of 100 μM, 150 nL of compound solution are transferred from a 10 mM DMSO compound stock solution. A series of eleven fivefold dilutions per compound are transferred to the assay plate, compound dilutions are tested in duplicates. DMSO are added as backfill to a total volume of 150 nL.
(§5) The assays run on a fully automated robotic system in a darkened room below 100 Lux. To 150 nl of compound dilution 10 μl of a mix including KRAS mutant protein, SOS1 (final assay concentrations see above) and GDP nucleotide (Sigma G7127; final assay concentration 10 μM) in assay buffer (1×PBS, 0.1% BSA, 0.05% Tween 20) are added into columns 1-24.
(§6) After 30 minutes incubation time 5 μl of Alpha Screen bead mix in assay buffer are added into columns 1-23. Bead mix consists of AlphaLISA Glutathione Acceptor Beads (PerkinElmer, Cat No AL109) and AlphaScreen Streptavidin Donor Beads (PerkinElmer Cat No 6760002) in assay buffer at a final assay concentration of 10 μg/ml each.
(§7) Plates are kept at room temperature in a darkened incubator. After an additional 60 minutes incubation time the signal is measured in a PerkinElmer Envision HTS Multilabel Reader using the AlphaScreen specs from PerkinElmer.
(§8) Each plate contains up to 16 wells of a negative control depending on the dilution procedure (platewise or serial) (DMSO instead of test compound; with KRAS mutant::SOS1 GDP mix and bead mix; column 23) and 16 wells of a positive control (DMSO instead of test compound; with KRAS mutant::SOS1 GDP mix w/o bead mix; column 24).
(§9) As internal control known inhibitors of KRAS mutant::SOS1 interaction can be measured on each compound plate. […]
For orientation: In Alpha technology, singlet oxygen from a donor bead excites a nearby acceptor bead.

The target in the next assay is KRAS (G12D)::SOS1 (Homo sapiens (Human), UniProt P01116, G12D). The experiment in a line: KRAS::SOS1 AlphaScreen binding assay, KRAS G12D.
Chain of KRAS (G12D)::SOS1 (P01116 other isoform, or with tags, fused parts or gaps G12D): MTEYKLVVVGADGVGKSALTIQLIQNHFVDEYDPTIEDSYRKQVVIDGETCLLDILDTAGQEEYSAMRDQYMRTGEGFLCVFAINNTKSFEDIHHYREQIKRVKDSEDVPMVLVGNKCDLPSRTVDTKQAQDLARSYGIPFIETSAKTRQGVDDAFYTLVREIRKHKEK
Source text: as §1, §2, §3, §4, §5, §6, §7, §8, §9

Chain of KRAS (G12C)::SOS1 (P01116 other isoform, or with tags, fused parts or gaps G12C/C51S/C80L/C118S): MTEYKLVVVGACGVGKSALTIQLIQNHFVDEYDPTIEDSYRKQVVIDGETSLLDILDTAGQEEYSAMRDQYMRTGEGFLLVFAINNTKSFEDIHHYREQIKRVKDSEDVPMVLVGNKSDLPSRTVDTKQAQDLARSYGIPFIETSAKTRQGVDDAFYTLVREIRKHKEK

`C[C@H](Oc1cc(N2CCCC2=O)nc(-c2noc3c2CCC[C@@]32CCCc3sc(N)c(C#N)c32)n1)[C@@H]1CCCN1C` [II-73]: the IC50 amounted to 250 nM in the assay with LOVO cells, 3 nM at KRAS (G12C)::SOS1 and 2 nM at KRAS (G12D)::SOS1.
With `COC(=O)c1ccc(-c2cc(O[C@@H](C)[C@@H]3CCCN3C)nc(-c3noc4c3CCC[C@@]43CCCc4sc(N)c(C#N)c43)n2)o1` [II-114], the IC50 was found to be 142 nM in the assay with LOVO cells, 2 nM on KRAS (G12C)::SOS1 and 3 nM at KRAS (G12D)::SOS1.
Take `C[C@H](Oc1cc(-c2ccn(C3COC3)n2)nc(-c2noc3c2CCC[C@@]32CCCc3sc(N)c(C#N)c32)n1)[C@@H]1C[C@H](F)CN1C` [II-83]: the IC50 is 2200 nM in the assay with LOVO cells, 5 nM at KRAS (G12C)::SOS1 and 20 nM at KRAS (G12D)::SOS1.
For `Cc1cn(-c2cc(O[C@@H](C)[C@@H]3CCCN3C)nc(-c3noc4c3CCC[C@@]43CCCc4sc(N)c(C#N)c43)n2)nn1` [II-106] the same measures were 993 nM, 4 nM and 9 nM.
Regarding `C[C@H](Oc1cc(N2CCOC3(COC3)C2)nc(-c2noc3c2CCC[C@@]32CCCc3sc(N)c(C#N)c32)n1)[C@@H]1CCCN1C` [II-77], the IC50 in the assay with LOVO cells came out at 39 nM; on KRAS (G12C)::SOS1 it was 2 nM; on KRAS (G12D)::SOS1, 1 nM.
For the molecule `C[C@H](Oc1cc(N2CC[C@@H](O)C2)nc(-c2noc3c2CCC[C@@]32CCCc3sc(N)c(C#N)c32)n1)[C@@H]1CCCN1C` [II-66], the results for the IC50 with LOVO cells, at KRAS (G12C)::SOS1 and at KRAS (G12D)::SOS1 were 3680 nM, 2 nM and 1 nM, respectively.
For `COCc1cn(-c2cc(O[C@@H](C)[C@@H]3CCCN3C)nc(-c3noc4c3CCC[C@@]43CCCc4sc(N)c(C#N)c43)n2)nn1` [II-121] the same measures were 129 nM, 2 nM and 3 nM.
For `C[C@H](Oc1cc(N2CCc3cccnc32)nc(-c2noc3c2CCC[C@@]32CCCc3sc(N)c(C#N)c32)n1)[C@@H]1CCCN1C` [II-90] the same measures were 735 nM, 7 nM and 21 nM.
Consider `C[C@H]1CN(C)CCCN1c1cc(N2CCN(C)CC2)nc(-c2onc3c2CCC[C@@]32CCCc3sc(N)c(C#N)c32)n1` [I-7], for which the IC50 in the assay with LOVO cells is 2810 nM; on KRAS (G12C)::SOS1, 23 nM; on KRAS (G12D)::SOS1, 3 nM.
Consider `C[C@H](Oc1cc(-c2ccccn2)nc(-c2noc3c2CCC[C@@]32CCCc3sc(N)c(C#N)c32)n1)[C@@H]1CCCN1C` [II-85], for which the IC50 in the assay with LOVO cells was determined as 209 nM; on KRAS (G12C)::SOS1, 2 nM; at KRAS (G12D)::SOS1, 2 nM.
In the case of `CO[C@@H]1C[C@@H]([C@H](C)Oc2cc(-c3ccn(C4COC4)n3)nc(-c3noc4c3CCC[C@@]43CCCc4sc(N)c(C#N)c43)n2)N(C)C1` [II-107], the IC50 in the assay with LOVO cells turned out to be 1010 nM; at KRAS (G12C)::SOS1, 2 nM; at KRAS (G12D)::SOS1, 4 nM.
`C[C@H](Oc1cc(N2C[C@H](C)NC3(CC3)C2)nc(-c2onc3c2CCC[C@@]32CCCc3sc(N)c(C#N)c32)n1)[C@@H]1CCCN1C` [I-8]: the figures for the IC50 in the assay on LOVO cells, on KRAS (G12C)::SOS1 and at KRAS (G12D)::SOS1 were 296 nM, 4 nM and 1 nM, respectively.
`C[C@H](Oc1cc(-c2ccn(C[C@@H](C)O)n2)nc(-c2noc3c2CCC[C@@]32CCCc3sc(N)c(C#N)c32)n1)[C@@H]1CCCN1C` [II-117]: the IC50 worked out at 58 nM in the assay on LOVO cells, 1 nM on KRAS (G12C)::SOS1 and 2 nM at KRAS (G12D)::SOS1.
In the same order, the values of `C[C@H](Oc1cc(-n2cnc3cccnc32)nc(-c2noc3c2CCC[C@@]32CCCc3sc(N)c(C#N)c32)n1)[C@@H]1CCCN1C` [II-65] are 289 nM, 4 nM and 9 nM.
In the same order, the values of `C[C@H](Oc1cc(-c2cnn(C)n2)nc(-c2noc3c2CCC[C@@]32CCCc3sc(N)c(C#N)c32)n1)[C@@H]1CCCN1C` [II-86] are 77 nM, 2 nM and 5 nM.
As to `C[C@H](Oc1cc(N2CCC[C@@H](O)C2)nc(-c2noc3c2CCC[C@@]32CCCc3sc(N)c(C#N)c32)n1)[C@@H]1CCCN1C` [II-59], the IC50 came out at 72 nM in the assay on LOVO cells, 2 nM on KRAS (G12C)::SOS1 and 2 nM at KRAS (G12D)::SOS1.
Consider `C[C@H](Oc1cc(-c2ccn(-c3ccsc3)n2)nc(-c2noc3c2CCC[C@@]32CCCc3sc(N)c(C#N)c32)n1)[C@@H]1CCCN1C` [II-84], for which the IC50 in the assay on LOVO cells came to 286 nM; at KRAS (G12C)::SOS1, 3 nM; on KRAS (G12D)::SOS1 it was 6 nM.
As for `C[C@H](Oc1cc(-c2cccc(CO)c2)nc(-c2noc3c2CCC[C@@]32CCCc3sc(N)c(C#N)c32)n1)[C@@H]1CCCN1C` [II-97], the values for the IC50 with LOVO cells, on KRAS (G12C)::SOS1 and on KRAS (G12D)::SOS1 were 683 nM, 3 nM and 13 nM, respectively.
`C[C@H](Oc1cc(-n2cc(-c3cccnc3)nn2)nc(-c2noc3c2CCC[C@@]32CCCc3sc(N)c(C#N)c32)n1)[C@@H]1CCCN1C` [II-123]: the IC50 with LOVO cells came out at 72 nM; on KRAS (G12C)::SOS1, 2 nM; at KRAS (G12D)::SOS1 it was 8 nM.
In the same order, the values of `C[C@H](Oc1cc(-c2cn[nH]c2)nc(-c2noc3c2CCC[C@@]32CCCc3sc(N)c(C#N)c32)n1)[C@@H]1CCCN1C` [II-87] are 427 nM, 3 nM and 3 nM.
For the molecule `C[C@H](Oc1cc([C@H]2CCOC2)nc(-c2noc3c2CCC[C@@]32CCCc3sc(N)c(C#N)c32)n1)[C@@H]1CCCN1C` [II-88], the values for the IC50 in the assay on LOVO cells, on KRAS (G12C)::SOS1 and on KRAS (G12D)::SOS1 were 62 nM, 2 nM and 1 nM, respectively.
Regarding `C[C@H](Oc1cc(N2CCNCC23CCOC3)nc(-c2onc3c2CCC[C@@]32CCCc3sc(N)c(C#N)c32)n1)[C@@H]1CCCN1C` (stereo partly shown) [I-10], the IC50 on KRAS (G12C)::SOS1 turned out to be 3 nM; at KRAS (G12D)::SOS1, 1 nM.
Consider `Cc1nc(-c2cc(O[C@@H](C)[C@@H]3CCCN3C)nc(-c3noc4c3CCC[C@@]43CCCc4sc(N)c(C#N)c43)n2)cs1` [II-103], for which the concentration for half-maximal inhibition (IC50) on KRAS (G12C)::SOS1 and on KRAS (G12D)::SOS1 was 2 nM each time.
For `C[C@H](Oc1cc(-c2cn(C3CCOCC3)nn2)nc(-c2noc3c2CCC[C@@]32CCCc3sc(N)c(C#N)c32)n1)[C@@H]1CCCN1C` [II-115], the IC50 at KRAS (G12C)::SOS1 is 8 nM; at KRAS (G12D)::SOS1, 13 nM.
Consider `C[C@H](Oc1cc(-n2cc3c(n2)CCNC3)nc(-c2noc3c2CCC[C@@]32CCCc3sc(N)c(C#N)c32)n1)[C@@H]1CCCN1C` [II-53], for which the half-maximal inhibitory concentration (IC50) worked out at 495 nM in the assay on LOVO cells and 1 nM on KRAS (G12D)::SOS1.
For the molecule `C[C@H](Oc1cc(-c2ccn3ncnc3c2)nc(-c2noc3c2CCC[C@@]32CCCc3sc(N)c(C#N)c32)n1)[C@@H]1CCCN1C` [II-104], the values for the IC50 on KRAS (G12C)::SOS1 and at KRAS (G12D)::SOS1 were 2 nM and 5 nM, respectively.
